This note sets out measurements from ChEMBL document CHEMBL5154869, “Discovery of 4-((E)-3,5-dimethoxy-2-((E)-2-nitrovinyl)styryl)aniline derivatives as potent and orally active NLRP3 inflammasome inhibitors for colitis” (Eur J Med Chem, 2022).

The target in series [1] is NACHT, LRR and PYD domains-containing protein 3 (Mus musculus) (UniProt Q8R4B8). Briefly: Inhibition of NLRP3 inflammasome activation in LPS-stimulated mouse J774.A1 cells assessed as reduction in pyroptosis at 10 uM pretreated for 4 hrs with LPS and for 30 mins with compound prior to ATP addition and measured after 30 mins by PI/Hoechst33342 staining based analysis. The note with it: time 60.0 min. Format: cell-based.

Series [2] can be described thus: Cytotoxicity against human L02 cells assessed as reduction in cell viability incubated for 24 hrs by MTT assay. It is filed as toxicity, cell-based.
In series [3] the target is NACHT, LRR and PYD domains-containing protein 3 (Mus musculus, UniProt Q8R4B8). Briefly: Inhibition of NLRP3 inflammasome activation in LPS/nigericin-treated C57BL/6 mouse bone marrow-derived macrophages assessed as reduction in IL-1beta secretion preincubated for 3 hrs with LPS and for 30 mins with compound prior to nigericin addition and measured after 30 mins by ELISA. It is filed as cell-based, BMDM.

The nature of series [4]: Metabolic stability in human liver microsomes assessed as half life by LC-MS/MS analysis. Format: ADME, Microsome.
Series [5] in a line: Metabolic stability in human liver microsomes assessed as intrinsic clearance by LC-MS/MS analysis. Format: ADME, Microsome. The note with it: read-out: CLH.
A short description of series [6]: Metabolic stability in human hepatocytes assessed as intrinsic clearance by LC-MS/MS analysis. Format: ADME, cell-based, Hepatocyte. To be noted: read-out: CLH.

pIC50: −log10 of the molar value. Some results are limits rather than exact numbers.

Chain of NACHT, LRR and PYD domains-containing protein 3 (Q8R4B8 whole entry, the tested form may be a part): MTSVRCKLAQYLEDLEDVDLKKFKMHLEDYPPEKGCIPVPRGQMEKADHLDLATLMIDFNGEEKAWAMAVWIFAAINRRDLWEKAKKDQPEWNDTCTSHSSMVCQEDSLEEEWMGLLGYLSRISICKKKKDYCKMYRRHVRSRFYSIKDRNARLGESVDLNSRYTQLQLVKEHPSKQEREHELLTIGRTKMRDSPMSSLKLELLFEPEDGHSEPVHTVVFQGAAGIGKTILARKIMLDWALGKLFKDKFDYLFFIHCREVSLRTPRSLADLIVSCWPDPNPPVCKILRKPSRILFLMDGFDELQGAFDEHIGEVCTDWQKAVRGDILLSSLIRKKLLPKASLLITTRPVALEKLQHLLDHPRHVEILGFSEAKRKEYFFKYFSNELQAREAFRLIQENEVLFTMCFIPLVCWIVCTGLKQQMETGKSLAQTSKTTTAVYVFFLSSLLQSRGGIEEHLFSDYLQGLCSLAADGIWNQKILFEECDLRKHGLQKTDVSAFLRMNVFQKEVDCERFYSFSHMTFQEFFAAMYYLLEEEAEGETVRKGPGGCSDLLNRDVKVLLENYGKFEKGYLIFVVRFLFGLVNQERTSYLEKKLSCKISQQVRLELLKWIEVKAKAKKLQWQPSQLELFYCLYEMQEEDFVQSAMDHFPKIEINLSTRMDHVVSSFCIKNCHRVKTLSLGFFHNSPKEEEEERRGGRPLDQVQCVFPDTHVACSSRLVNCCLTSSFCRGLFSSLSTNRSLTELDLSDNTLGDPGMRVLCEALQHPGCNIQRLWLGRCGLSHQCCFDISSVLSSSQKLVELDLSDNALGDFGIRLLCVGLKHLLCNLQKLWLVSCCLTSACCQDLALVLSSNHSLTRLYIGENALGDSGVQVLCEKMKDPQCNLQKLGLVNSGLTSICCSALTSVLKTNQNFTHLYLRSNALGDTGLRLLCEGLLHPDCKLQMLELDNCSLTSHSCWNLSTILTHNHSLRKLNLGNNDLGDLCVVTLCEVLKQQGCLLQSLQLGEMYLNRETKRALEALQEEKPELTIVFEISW
Chain of NACHT, LRR and PYD domains-containing protein 3 (Mus musculus) (Q8R4B8 whole entry, the tested form may be a part): as above

As for `COc1cc(/C=C/c2ccc(NC(=O)c3ccccc3Cl)cc2)c(/C=C/[N+](=O)[O-])c(OC)c1`, in series [1], the inhibition was found to be 28.9%. The IC50 at 24 h in series [2] is greater than 100 µM.

Turning to `COc1cc(/C=C/c2ccc(NC(=O)c3cccs3)cc2)c(/C=C/[N+](=O)[O-])c(OC)c1`, in series [1], the inhibition was 66%. For the same compound, in series [2], the IC50 at 24 h was greater than 100 µM. For the same compound, the pIC50 in series [3] was 5.67.

Turning to `COc1cc(/C=C/c2ccc(NC(=O)COc3ccccc3)cc2)c(/C=C/[N+](=O)[O-])c(OC)c1`, the inhibition in series [1] came out at 7.5%. The IC50 at 24 h in series [2] is greater than 100 µM.

As to `C=C1C(=O)[C@]23[C@H](O)[C@H]1CC[C@H]2[C@@]12CO[C@]3(O)[C@@H](O)[C@@H]1C(C)(C)CC[C@@H]2O` [ORIDONIN], the inhibition in series [1] amounted to 73.8%. Moreover, the IC50 at 24 h in series [2] amounted to 42.2 µM.

For the compound `COc1cc(/C=C/c2ccc(NC(=O)c3cc4ccccc4o3)cc2)c(/C=C/[N+](=O)[O-])c(OC)c1`, in series [1], the inhibition amounted to 6.47%. Besides, the IC50 at 24 h in series [2] was greater than 100 µM.

With `COc1cc(/C=C/c2ccc(NC(=O)c3ccc(C)o3)cc2)c(/C=C/[N+](=O)[O-])c(OC)c1`, in series [1], the inhibition was determined as 69.5%. Also, in series [2], the IC50 at 24 h was greater than 100 µM.

`CCOc1ccc(C(=O)Nc2ccc(/C=C/c3cc(OC)cc(OC)c3/C=C/[N+](=O)[O-])cc2)cc1`: the inhibition in series [1] was 39.9%. Also, the half-maximal inhibitory concentration (IC50) at 24 h in series [2] was greater than 100 µM.

For the compound `COc1cc(/C=C/c2ccc(NC(=O)/C=C/c3ccccc3)cc2)c(/C=C/[N+](=O)[O-])c(OC)c1`, the inhibition in series [1] worked out at 30.7%. Also, the IC50 at 24 h in series [2] was greater than 100 µM. Besides, the pIC50 in series [3] was less than 5.00.

`COc1cc(/C=C/c2ccc(NC(=O)c3ccc(Br)cc3)cc2)c(/C=C/[N+](=O)[O-])c(OC)c1`: the inhibition in series [1] turned out to be 46.2%. In series [2], the IC50 at 24 h is greater than 100 µM.

As for `COc1cc(/C=C/c2ccc(NC(=O)c3cccc(F)c3)cc2)c(/C=C/[N+](=O)[O-])c(OC)c1`, the inhibition in series [1] is 39.9%. Moreover, the IC50 at 24 h in series [2] was greater than 100 µM.

For the compound `O=[N+]([O-])/C=C/c1ccc2c(c1)OCO2`, the inhibition in series [1] was 75.1%. In addition, the IC50 at 24 h in series [2] worked out at 39.2 µM.

Consider `COc1cc(/C=C/c2ccc(NC(=O)c3ccccc3F)cc2)c(/C=C/[N+](=O)[O-])c(OC)c1`, for which the inhibition in series [1] stood at 38.9%. For the same compound, the half-maximal inhibitory concentration (IC50) at 24 h in series [2] is greater than 100 µM.

Turning to `COc1cc(/C=C/c2ccc(NC(=O)c3ccccc3)cc2)c(/C=C/[N+](=O)[O-])c(OC)c1`, the inhibition in series [1] came to 72.2%. Also, the IC50 at 24 h in series [2] is greater than 100 µM. Further, the negative-log IC50 (pIC50) in series [3] was 5.81.

With `COc1cc(/C=C/c2ccc(NC(=O)c3ccccc3OC)cc2)c(/C=C/[N+](=O)[O-])c(OC)c1`, the inhibition in series [1] is 31%. Moreover, in series [2], the IC50 at 24 h was greater than 100 µM.

On to `COc1cc(/C=C/c2ccc(NC(=O)c3cccc(Br)c3)cc2)c(/C=C/[N+](=O)[O-])c(OC)c1`, for which the inhibition in series [1] was 20.1%. Further, the IC50 at 24 h in series [2] is greater than 100 µM.

For `COc1cc(/C=C/c2ccc(NC(=O)c3ccc(Cl)cc3)cc2)c(/C=C/[N+](=O)[O-])c(OC)c1`, the inhibition in series [1] turned out to be 50%. Also, the IC50 at 24 h in series [2] was greater than 100 µM.

In the case of `COc1cc(/C=C/c2ccc(NC(=O)c3ccc(F)cc3)cc2)c(/C=C/[N+](=O)[O-])c(OC)c1`, in series [1], the inhibition is 44%. Moreover, in series [2], the IC50 at 24 h is greater than 100 µM. Also, in series [3], the pIC50 is 5.03.

In the case of `COc1cc(/C=C/c2ccc(NC(=O)C3CCCO3)cc2)c(/C=C/[N+](=O)[O-])c(OC)c1` (centres undefined), the inhibition in series [1] is 65.2%. The IC50 at 24 h in series [2] is greater than 100 µM.

Consider `COc1cc(/C=C/c2ccc(NC(=O)c3cccc(Cl)c3)cc2)c(/C=C/[N+](=O)[O-])c(OC)c1`, for which the inhibition in series [1] amounted to 24%. Further, in series [2], the IC50 at 24 h was greater than 100 µM.

For `COc1ccc(C(=O)Nc2ccc(/C=C/c3cc(OC)cc(OC)c3/C=C/[N+](=O)[O-])cc2)cc1`, the inhibition in series [1] came out at 41%. The concentration for half-maximal inhibition (IC50) at 24 h in series [2] was greater than 100 µM. Moreover, the pIC50 in series [3] is less than 5.00.

For `COc1cc(/C=C/c2ccc(NC(=O)c3cccc(C)c3)cc2)c(/C=C/[N+](=O)[O-])c(OC)c1`, in series [1], the inhibition was 39.9%. The IC50 at 24 h in series [2] was greater than 100 µM.

For the compound `COc1cc(/C=C/c2ccc(NC(=O)C3CC3)cc2)c(/C=C/[N+](=O)[O-])c(OC)c1`, in series [4], the half-life came to 59.7 min. For the same compound, the microsomal CLint in series [5] was 23.2 µL/min/mg. Also, the CLint scaled in series [6] came out at 11.7 mL/min/kg.

On to `COc1cc(/C=C/c2ccc(NC(=O)c3ccc(C)cc3)cc2)c(/C=C/[N+](=O)[O-])c(OC)c1`, for which the inhibition in series [1] was 28.6%. For the same compound, the IC50 at 24 h in series [2] is greater than 100 µM.

In the case of `COc1cc(/C=C/c2ccc(NC(=O)c3ccccn3)cc2)c(/C=C/[N+](=O)[O-])c(OC)c1`, the inhibition in series [1] was 60%. Moreover, in series [2], the half-inhibitory concentration (IC50) at 24 h was greater than 100 µM.

Take `COc1cc(/C=C/c2ccc(NC(=O)C(C)(C)C)cc2)c(/C=C/[N+](=O)[O-])c(OC)c1`: in series [1], the inhibition worked out at 52.7%. The IC50 at 24 h in series [2] was greater than 100 µM.

For the compound `COc1cc(/C=C/c2ccc(NC(=O)c3cccc4ccccc34)cc2)c(/C=C/[N+](=O)[O-])c(OC)c1`, the inhibition in series [1] came to 4.62%. Besides, the IC50 at 24 h in series [2] was greater than 100 µM.

For `COc1cc(/C=C/c2ccc(NC(=O)c3ccccc3C)cc2)c(/C=C/[N+](=O)[O-])c(OC)c1`, in series [1], the inhibition was determined as 39%. The IC50 at 24 h in series [2] was greater than 100 µM.

With `CCc1ccc(C(=O)Nc2ccc(/C=C/c3cc(OC)cc(OC)c3/C=C/[N+](=O)[O-])cc2)cc1`, in series [1], the inhibition is 39%. The IC50 at 24 h in series [2] was greater than 100 µM.

For `COc1cccc(C(=O)Nc2ccc(/C=C/c3cc(OC)cc(OC)c3/C=C/[N+](=O)[O-])cc2)c1`, in series [1], the inhibition is 24%. In series [2], the IC50 at 24 h was greater than 100 µM.

On to `COc1cc(/C=C/c2ccc(NC(=O)c3ccc(I)cc3)cc2)c(/C=C/[N+](=O)[O-])c(OC)c1`, for which, in series [1], the inhibition turned out to be 30.7%. For the same compound, the concentration for half-maximal inhibition (IC50) at 24 h in series [2] is greater than 100 µM.

On to `COc1cc(/C=C/c2ccc(NC(=O)c3ccoc3)cc2)c(/C=C/[N+](=O)[O-])c(OC)c1`, for which the inhibition in series [1] worked out at 64.2%. In series [2], the IC50 at 24 h is greater than 100 µM.

Regarding `COc1cc(/C=C/c2ccc(NC(=O)c3ccc4ccccc4c3)cc2)c(/C=C/[N+](=O)[O-])c(OC)c1`, in series [1], the inhibition was 57.2%. For the same compound, the 50% inhibitory concentration (IC50) at 24 h in series [2] was 131 µM. In addition, in series [3], the pIC50 is less than 5.00.

`COc1cc(/C=C/c2ccc(NC(=O)c3ccccc3Br)cc2)c(/C=C/[N+](=O)[O-])c(OC)c1`: the inhibition in series [1] was found to be 36%. In addition, the IC50 at 24 h in series [2] is greater than 100 µM. The pIC50 in series [3] was less than 5.00.
